Source: patent publication US20230365563A1, “QUINAZOLINE COMPOUND AND APPLICATION THEREOF” (SHANGHAI PHARMACEUTICALS HOLDING CO., LTD., priority 2020, published 2023)
Counter-ions that a name gives are not always drawn.

Columns and labels:
KRAS_G12D and cRAF = molecular target: T1, KRAS_G12D and cRAF (Homo sapiens, UniProt P01116, G12D); assay: Inhibition of KRAS_G12D/cRAF binding (Cisbio binding kit, 665/615 ratio), Effect Embodiment B; details: read-out: GTP-KRAS-G12D:CRAF IC50
T1 construct: purchased
T1 sequence (P01116 1-188 isoform P01116-2 G12D): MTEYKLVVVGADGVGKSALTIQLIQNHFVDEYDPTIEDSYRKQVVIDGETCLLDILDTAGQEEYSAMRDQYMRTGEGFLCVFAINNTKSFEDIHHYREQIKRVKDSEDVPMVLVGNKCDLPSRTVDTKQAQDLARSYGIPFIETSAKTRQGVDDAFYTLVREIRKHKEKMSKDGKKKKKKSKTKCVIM
How it was run: (§1)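 Compounds are tested over eleven threefold dilution steps in duplicate, with final DMSO at 1%.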

KRAS_WT and SOS1 = molecular target: T2, KRAS_WT and SOS1 (Homo sapiens, UniProt P01116); assay: Inhibition of KRAS_WT/SOS1 binding (Cisbio binding kit, 665/615 ratio), Effect Embodiment C; details: read-out: GTP-KRAS-WT:SOS1 IC50
T2 construct: purchased
T2 sequence (P01116 1-188 isoform P01116-2): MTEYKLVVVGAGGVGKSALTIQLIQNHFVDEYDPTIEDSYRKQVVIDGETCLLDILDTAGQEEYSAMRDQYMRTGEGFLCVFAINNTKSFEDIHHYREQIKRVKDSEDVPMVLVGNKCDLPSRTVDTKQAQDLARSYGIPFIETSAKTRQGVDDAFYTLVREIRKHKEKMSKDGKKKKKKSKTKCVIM
How it was run: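 Compounds tested as 3-fold, 11-point dilutions in duplicate at 1% DMSO final against the KRAS_WT/SOS1 binding system. IC50 derived by nonlinear regression fit.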

KRAS-G12D and SOS1 = molecular target: T3, KRAS-G12D and SOS1 (Homo sapiens, UniProt P01116, G12D); assay: Inhibition of KRAS-G12D/SOS1 binding (Cisbio binding kit, 665/615 ratio), Effect Embodiment A; details: read-out: GTP-KRAS-G12D:SOS1 IC50
T3 construct: purchased
T3 sequence (P01116 1-188 isoform P01116-2 G12D): as the sequence (P01116 1-188 isoform P01116-2 G12D) above
How it was run: as §1

Row | SMILES | IC50 (KRAS_G12D and cRAF) [nM] | IC50 (KRAS_WT and SOS1) [nM] | IC50 (KRAS-G12D and SOS1) [nM]
1 | Oc1cc(-c2c(Cl)cc3c(N4CC5CCC(C4)N5)nc(OCC4(CN5C6CCC5COC6)CCC4)nc3c2F)c2ccccc2c1 (single isomer, unassigned) [Compound 173, (4R or S)-4-(2-((1-((3-oxa-8-azabicyclo[3.2.1]octan-8-yl)methyl)cyclobutyl)methoxy)-4-((1R,5S)-3,8-diazabicyclo[3.2.1]octan-3-yl)-6-chloro-8-fluoroquinazolin-7-yl)naphthalen-2-ol dihydrochloride] | 37.9 | 251 | 14.8
2 | C[C@H]1COCCN1CCCOc1nc(N2C[C@H]3CC[C@@H](C2)N3)c2cc(Cl)c(-c3cc(O)cc4ccccc34)c(F)c2n1 (single isomer, unassigned) [Compound 174, (R or S)-4-(4-((1R,5S)-3,8-diazabicyclo[3.2.1]octan-3-yl)-6-chloro-8-fluoro-2-(3-((S)-3-methylmorpholinyl)propoxy)quinazolin-7-yl)naphthalen-2-ol diformate] | 170 | 1820 | 57.8
3 | C[C@@H]1COC[C@H](C)N1CCCOc1nc(N2CC3CCC(C2)N3)c2cc(Cl)c(-c3cc(O)cc4ccccc34)c(F)c2n1 (single isomer, unassigned) [Compound 175, (R or S)-4-(4-((1R,5S)-3,8-diazabicyclo[3.2.1]octan-3-yl)-6-chloro-2-(3-((3R,5S)-3,5-dimethylmorpholinyl)propoxy)-8-fluoroquinazolin-7-yl)naphthalen-2-ol formate] | 303 | 4300 | 104
4 | Oc1cc(-c2c(Cl)cc3c(N4CC5CCC(C4)N5)nc(OC[C@@]45CCCN4C[C@H](F)C5)nc3c2F)c2ccccc2c1 (single isomer, unassigned) [Compound 176, 4-((R or S)-4-((1R,5S)-3,8-diazabicyclo[3.2.1]octan-3-yl)-6-chloro-8-fluoro-2-((2R,7aS)-2-fluorotetrahydro-1H-pyrrolin-7a(5H)-yl)methoxy)quinazolin-7-yl)naphthalenol formate] | 6.98 | 28 | 13.6
5 | Oc1cc(-c2c(Cl)cc3c(N4CC5CCC(C4)N5)nc(OCCCN4C5CCCC4COC5)nc3c2F)c2ccccc2c1 (single isomer, unassigned) [Compound 177, (R or S)-4-(2-(3-((1R,5S)-3-oxa-9-azabicyclo[3.3.1]nonan-9-yl)propoxy)-4-((1R,5S)-3,8-diazabicyclo[3.2.1]octan-3-yl)-6-chloro-8-fluoroquinazolin-7-yl)naphthalen-2-ol formate] | 121 | 1190 | 40.5
6 | CC(COc1nc(N2CC3CCC(C2)N3)c2cc(Cl)c(-c3cc(O)cc4ccccc34)c(F)c2n1)CN1C2CCC1COC2 (single isomer, unassigned) [Compound 178a, 4-((7R or 7S)-2-((2R or 2S)-3-(3-oxa-8-azabicyclo[3.2.1]octan-8-yl)-2-methylpropoxy)-4-((1R,5S)-3,8-diazabicyclo[3.2.1]octan-3-yl)-6-chloro-8-fluoroquinazolin-7-yl)naphthalen-2-ol diformate] | 18.1 | 836 | 21.6
7 | CC(COc1nc(N2CC3CCC(C2)N3)c2cc(Cl)c(-c3cc(O)cc4ccccc34)c(F)c2n1)CN1C2CCC1COC2 (single isomer, unassigned) [Compound 178b, 4-((7R or 7S)-2-((2S or 2R)-3-(3-oxa-8-azabicyclo[3.2.1]octan-8-yl)-2-methylpropoxy)-4-((1R,5S)-3,8-diazabicyclo[3.2.1]octan-3-yl)-6-chloro-8-fluoroquinazolin-7-yl)naphthalen-2-ol dicarboxylate] | 150 | 1050 | 39.7
8 | Oc1cc(-c2c(Cl)cc3c(N4CC5CCC(C4)N5)nc(OCC(F)CN4C5CCC4COC5)nc3c2F)c2ccccc2c1 (single isomer, unassigned) [Compound 179b, ((4R or 4S)-4-(2-((2S or 2R)-3-(3-oxa-8-azabicyclo[3.2.1]octan-8-yl)-2-fluoropropoxy)-4-((1R,5S)-3,8-diazabicyclo[3.2.1]octan-3-yl)-6-chloro-8-fluoroquinazolin-7-yl)naphthalen-2-ol diformate] | 134 | 5400 | 60
9 | C[C@H]1COC[C@H](C)N1CCCOc1nc(N2CC3CCC(C2)N3)c2cc(Cl)c(-c3cc(O)cc4ccccc34)c(F)c2n1 (single isomer, unassigned) [Compound 180, 4-((R or S)-4-((1R,5S)-3,8-diazabicyclo[3.2.1]octan-3-yl)-6-chloro-2-(3-((3S,5S)-3,5-dimethylmorpholinyl)propoxy)-8-fluoroquinazolin-7-yl)naphthalen-2-ol diformate] | 256 | 3930 | 87.3
10 | C[C@@H]1COCCN1CCCOc1nc(N2C[C@H]3CC[C@@H](C2)N3)c2cc(Cl)c(-c3cc(O)cc4ccccc34)c(F)c2n1 (single isomer, unassigned) [Compound 181, (R or S)-4-(4-((1R,5S)-3,8-diazabicyclo[3.2.1]octan-3-yl)-6-chloro-8-fluoro-2-(3-((R)-3-methylmorpholinyl)propoxy)quinazolin-7-yl)naphthalen-2-ol diformate] | 136 | 3090 | 38.1
11 | CO[C@@H](COc1nc(N2CC3CCC(C2)N3)c2cc(Cl)c(-c3cc(O)cc4ccccc34)c(F)c2n1)CN1C2CCC1COC2 (single isomer, unassigned) [Compound 182, (4R or S)-4-(2-((2R)-3-(3-oxa-8-azabicyclo[3.2.1]octan-8-yl)-2-methoxypropoxy)-4-((1R,5S)-3,8-diazabicyclo[3.2.1]octan-3-yl)-6-chloro-8-fluoroquinazolin-7-yl)naphthalen-2-ol diformate] | 219 | 3400 | 53.3
12 | CN1C[C@@H]2C[C@@H]2[C@H]1COc1nc(N2CC3CCC(C2)N3)c2cc(Cl)c(-c3cc(O)cc4ccccc34)c(F)c2n1 (single isomer, unassigned) [Compound 183, 4-((R or S)-4-((1R,5S)-3,8-diazabicyclo[3.2.1]octan-3-yl)-6-chloro-8-fluoro-2-((1S,2S,5R)-3-methyl-3-azabicyclo[3.1.0]hexan-2-yl)methoxy)quinazolin-7-yl)naphthalen-2-ol diformate] | 88.9 | 1510 | 29.2
13 | CN(C)CC1(COc2nc(N3CC4CCC(C3)N4)c3cc(Cl)c(-c4cc(O)cc5ccccc45)c(F)c3n2)CC1 (single isomer, unassigned) [Compound 186, 4-((R or S)-4-((1R,5S)-3,8-diazabicyclo[3.2.1]octan-3-yl)-6-chloro-2-((1-((dimethylamino)methyl)cyclopropyl)methoxy)-8-fluoroquinazolin-7-yl)naphthalen-2-ol diformate] | 18.1 | 233 | 16.9
14 | Oc1cc(-c2c(Cl)cc3c(N4CC5CCC(C4)N5)nc(OCCCN4CC5CCC4CO5)nc3c2F)c2ccccc2c1 (single isomer, unassigned) [Compound 187a, (R or S)-4-(2-(3-((1S,4S or 1R,4R)-2-oxa-5-azabicyclo[2.2.2]octan-5-yl)propoxy)-4-((1R,5S)-3,8-diazabicyclo[3.2.1]octan-3-yl)-6-chloro-8-fluoroquinazolin-7-yl)naphthalen-2-ol diformate] | 66.2 | 1350 | 27.4
15 | Oc1cc(-c2c(Cl)cc3c(N4CC5CCC(C4)N5)nc(OCCCN4CC5CCC4CO5)nc3c2F)c2ccccc2c1 (single isomer, unassigned) [Compound 187b, (R or S)-4-(2-(3-((1R,4R or 1S,4S)-2-oxa-5-azabicyclo[2.2.2]octan-5-yl)propoxy)-4-((1R,5S)-3,8-diazabicyclo[3.2.1]octan-3-yl)-6-chloro-8-fluoroquinazolin-7-yl)naphthalen-2-ol diformate] | 115 | 1670 | 27.7
16 | Oc1cc(-c2c(Cl)cc3c(N4CC5CCC(C4)N5)nc(OCCCN4CC5CCC(C4)O5)nc3c2F)c2ccccc2c1 (single isomer, unassigned) [Compound 188, 4-((7R or S)-2-(3-(8-oxa-3-azabicyclo[3.2.1]octan-3-yl)propoxy)-4-((1R,5S)-3,8-diazabicyclo[3.2.1]octan-3-yl)-6-chloro-8-fluoroquinazolin-7-yl)naphthalen-2-ol formate] | 133 | 1020 | 35.6
17 | C[C@H]1C[C@@H](COc2nc(N3CC4CCC(C3)N4)c3cc(Cl)c(-c4cc(O)cc5ccccc45)c(F)c3n2)N(C)C1 (single isomer, unassigned) [Compound 190, 4-((R or S)-4-((1R,5S)-3,8-diazabicyclo[3.2.1]octan-3-yl)-6-chloro-2-((2S,4S)-1,4-dimethylpyrrolidin-2-yl)methoxy)-8-fluoroquinazolin-7-yl)naphthalen-2-ol diformate] | 28.9 | 292 | 15.3
18 | CN1CCC[C@H]1COc1nc(N2CC3(C)CCC(C)(C2)N3)c2cc(Cl)c(-c3cc(O)cc4ccccc34)c(F)c2n1 (single isomer, unassigned) [Compound 194a, 4-((R or S)-6-chloro-4-((1R,5S)-1,5-dimethyl-3,8-diazabicyclo[3.2.1]octan-3-yl)-8-fluoro-2-(((S)-1-methylpyrrolidin-2-yl)methoxy)quinazolin-7-yl)naphthalen-2-ol diformate] | 155 | 205 | 27.9
